From patent US20240393292A1, “ALLERGY ANTIGEN AND EPITOPE THEREOF” (HOYU CO., LTD., priority 2019, published 2024)
Each block holds one substance with its values, some of them ahead of it.

Tested on: IgE antibodies from patients
Assay: Wheat epitope mapping (2): overlapping 10-amino-acid peptide fragments shifted by one amino acid
Assay type: binding, human
Details: sequence without X; for Epitope sequence binding to IgE antibody, rank of the sequence (Key/Preferably/More preferably/Further preferably): serum of patient P2 (WDEIA)
Protocol: The peptides to be synthesized were shifted by one amino acid.
The library was prepared by the same procedure as described above in (A), and the presence or absence of binding of an IgE antibody present in the serum of a patient to each peptide fragment was measured by the same technique as described above. Numeric values determined from images obtained as a result of carrying out only the procedures (1) and (4) to (6) described above in the subsection titled (3) Spotting of cellulose-bound peptide solution were used as control values. The control value of each peptide was subtracted from numeric values determined from images obtained from results about the serum of patients, and the obtained value of the difference was compared with values of the peptides serving as the basis of overlapping.
Chemiluminescence intensity in images obtained by measurement was converted into a numeric value in the same manner as in (A). Numeric values determined from images obtained as a result of carrying out only the procedures (1) and (4) to (6) described above in the subsection titled (3) Spotting of cellulose-bound peptide solution (secondary antibody measurement values) were used as control values. The control value of each peptide was subtracted from numeric values determined from images obtained from results about the serum of patients. When values obtained using the sequences (SEQ ID NOs: 29, 131, 191, 281, 346, 414, 493, 562, 640, 706, 776, 899, 974, 1010, 1089, 1142, 1166, 1209, 1257, 1297, 1367, 1403, 1508, 1566, 1598, 1608, 1685, 1753, 1789, 1836, 1895, 1977, 2004, 2027, 2068, 2154, 2217, 2265, 2309, 2342, 2419, 2491, 2545, 2613, 2631, 2674, 2701, 2774, 2809 and 2830) serving as the basis of overlapping were defined as 100%, it was determined that: a peptide having a value of the difference that was less than 30% had no binding activity against IgE antibodies; a peptide having a value of the difference that was 30% or more and less than 50% had binding activity, albeit poor, against IgE antibodies; a peptide having a value of the difference that was 50% or more and less than 70% had binding activity, albeit somewhat poor, against IgE antibodies; and a peptide having a value of the difference that was 70% or more had equivalent or good binding activity against IgE antibodies and was thus a peptide had remaining binding activity against IgE antibodies.

[1] = serum of patient G7 (adult, general immediate type allergy to wheat)

Epitope sequence binding to IgE antibody, rank of the sequence (serum of patient P12 (WDEIA)): Key
Substance: 1227 (PQQPPC; REGION 1..6: note = epitope) [compound 1227]

Epitope sequence binding to IgE antibody, rank of the sequence (serum of patient P13 (WDEIA)): Preferably
Substance: 1229 (PIQQQP; REGION 1..6: note = epitope) [compound 1229]

Epitope sequence binding to IgE antibody, rank of the sequence (serum of patient P13 (WDEIA)): Key
Substance: 1231 (PQQPP; REGION 1..5: note = epitope) [compound 1231]

Epitope sequence binding to IgE antibody, rank of the sequence (serum of patient P14 (WDEIA)): Key
Substance: 1234 (PQQPP; REGION 1..5: note = epitope) [compound 1234]

Epitope sequence binding to IgE antibody, rank of the sequence (serum of patient P17 (WDEIA)): Key
Substance: 1235 (PQQPP; REGION 1..5: note = epitope) [compound 1235]

Epitope sequence binding to IgE antibody, rank of the sequence (serum of patient P21 (WDEIA)): Key
Substance: 1236 (PQQPP; REGION 1..5: note = epitope) [compound 1236]

Epitope sequence binding to IgE antibody, rank of the sequence (serum of patient P24 (WDEIA)): Preferably
Substance: 1239 (QQQPIQQQP; REGION 1..9: note = epitope) [compound 1239]

Epitope sequence binding to IgE antibody, rank of the sequence (serum of patient P26 (WDEIA)): Key
Substance: 1241 (PIQQQP; REGION 1..6: note = epitope) [compound 1241]

Epitope sequence binding to IgE antibody, rank of the sequence (serum of patient P26 (WDEIA)): Preferably
Substance: 1242 (PQQPPC; REGION 1..6: note = epitope) [compound 1242]

Epitope sequence binding to IgE antibody, rank of the sequence (serum of patient P26 (WDEIA)): Key
Substance: 1243 (PQQPP; REGION 1..5: note = epitope) [compound 1243]

Epitope sequence binding to IgE antibody, rank of the sequence (serum of patient P31 (WDEIA)): Key
Substance: 1244 (PIQQQP; REGION 1..6: note = epitope) [compound 1244]

Epitope sequence binding to IgE antibody, rank of the sequence (serum of patient P31 (WDEIA)): Preferably
Substance: 1245 (PQQPPC; REGION 1..6: note = epitope) [compound 1245]

Epitope sequence binding to IgE antibody, rank of the sequence (serum of patient P31 (WDEIA)): Key
Substance: 1246 (PQQPP; REGION 1..5: note = epitope) [compound 1246]

Epitope sequence binding to IgE antibody, rank of the sequence (serum of patient P32 (WDEIA)): Key
Substance: 1247 (PIQQQP; REGION 1..6: note = epitope) [compound 1247]

Epitope sequence binding to IgE antibody, rank of the sequence (serum of patient P32 (WDEIA)): Key
Substance: 1248 (PQQPP; REGION 1..5: note = epitope) [compound 1248]

Epitope sequence binding to IgE antibody, rank of the sequence (serum of patient P33 (WDEIA)): Key
Substance: 1249 (QQPIQQQP; REGION 1..8: note = epitope) [compound 1249]

Epitope sequence binding to IgE antibody, rank of the sequence (serum of patient P33 (WDEIA)): Key
Substance: 1250 (PQQPP; REGION 1..5: note = epitope) [compound 1250]

Epitope sequence binding to IgE antibody, rank of the sequence (serum of patient P35 (WDEIA)): Key
Substance: 1252 (PQQPP; REGION 1..5: note = epitope) [compound 1252]

Epitope sequence binding to IgE antibody, rank of the sequence (serum of patient P36 (WDEIA)): Preferably
Substance: 1253 (PIQQQPQPFP; REGION 1..10: note = epitope) [compound 1253]

Epitope sequence binding to IgE antibody, rank of the sequence (serum of patient P36 (WDEIA)): Key
Substance: 1254 (PIQQQP; REGION 1..6: note = epitope) [compound 1254]

Epitope sequence binding to IgE antibody, rank of the sequence (serum of patient P36 (WDEIA)): Preferably
Substance: 1255 (PQQPPC; REGION 1..6: note = epitope) [compound 1255]

Epitope sequence binding to IgE antibody, rank of the sequence (serum of patient P36 (WDEIA)): Key
Substance: 1256 (PQQPP; REGION 1..5: note = epitope) [compound 1256]

Epitope sequence binding to IgE antibody, rank of the sequence (Key/Preferably/More preferably/Further preferably): Key
Substance: 1259 (LPRS; REGION 1..4: note = epitope) [compound 1259]

Epitope sequence binding to IgE antibody, rank of the sequence (serum of patient P20 (WDEIA)): Key
Substance: 1269 (LPRS; REGION 1..4: note = epitope) [compound 1269]

Epitope sequence binding to IgE antibody, rank of the sequence (serum of patient P29 (WDEIA)): Key
Substance: 1277 (LPRS; REGION 1..4: note = epitope) [compound 1277]

Epitope sequence binding to IgE antibody, rank of the sequence (serum of patient P33 (WDEIA)): Key
Substance: 1282 (LPRS; REGION 1..4: note = epitope) [compound 1282]

Epitope sequence binding to IgE antibody, rank of the sequence (serum of patient P50 (child, general immediate type allergy to wheat)): Key
Substance: 1287 (ILPRS; REGION 1..5: note = epitope) [compound 1287]

Epitope sequence binding to IgE antibody, rank of the sequence (serum of patient P52 (child, general immediate type allergy to wheat)): Key
Substance: 1288 (LPRS; REGION 1..4: note = epitope) [compound 1288]

Epitope sequence binding to IgE antibody, rank of the sequence (serum of patient P53 (child, general immediate type allergy to wheat)): Key
Substance: 1291 (LPRS; REGION 1..4: note = epitope) [compound 1291]

Epitope sequence binding to IgE antibody, rank of the sequence [1]: Key
Substance: 1295 (VSMILPRSD; REGION 1..9: note = epitope) [compound 1295]

Epitope sequence binding to IgE antibody, rank of the sequence [1]: Key
Substance: 1296 (ILPRSDCKV; REGION 1..9: note = epitope) [compound 1296]

Epitope sequence binding to IgE antibody, rank of the sequence (Key/Preferably/More preferably/Further preferably): Preferably
Substance: 1300 (SINVENVED; REGION 1..9: note = epitope) [compound 1300]

Epitope sequence binding to IgE antibody, rank of the sequence (Key/Preferably/More preferably/Further preferably): Key
Substance: 1301 (SINVEN; REGION 1..6: note = epitope) [compound 1301]

Epitope sequence binding to IgE antibody, rank of the sequence (serum of patient P3 (WDEIA)): Preferably
Substance: 1303 (INVEN; REGION 1..5: note = epitope) [compound 1303]

Epitope sequence binding to IgE antibody, rank of the sequence (serum of patient P3 (WDEIA)): Key
Substance: 1304 (NVEN; REGION 1..4: note = epitope) [compound 1304]

Epitope sequence binding to IgE antibody, rank of the sequence (serum of patient P3 (WDEIA)): Key
Substance: 1305 (NRRALR; REGION 1..6: note = epitope) [compound 1305]

Epitope sequence binding to IgE antibody, rank of the sequence (serum of patient P8 (WDEIA)): Key
Substance: 1307 (NVEN; REGION 1..4: note = epitope) [compound 1307]

Epitope sequence binding to IgE antibody, rank of the sequence (serum of patient P10 (WDEIA)): Key
Substance: 1311 (NVEN; REGION 1..4: note = epitope) [compound 1311]

Epitope sequence binding to IgE antibody, rank of the sequence (serum of patient P12 (WDEIA)): Key
Substance: 1313 (NVEN; REGION 1..4: note = epitope) [compound 1313]

Epitope sequence binding to IgE antibody, rank of the sequence (serum of patient P14 (WDEIA)): Key
Substance: 1316 (VEDNRRALR; REGION 1..9: note = epitope) [compound 1316]

Epitope sequence binding to IgE antibody, rank of the sequence (serum of patient P17 (WDEIA)): Key
Substance: 1320 (NVEN; REGION 1..4: note = epitope) [compound 1320]

Epitope sequence binding to IgE antibody, rank of the sequence (serum of patient P20 (WDEIA)): Preferably
Substance: 1324 (INVEN; REGION 1..5: note = epitope) [compound 1324]

Epitope sequence binding to IgE antibody, rank of the sequence (serum of patient P22 (WDEIA)): Preferably
Substance: 1332 (SINVEN; REGION 1..6: note = epitope) [compound 1332]

Epitope sequence binding to IgE antibody, rank of the sequence (serum of patient P22 (WDEIA)): Key
Substance: 1333 (INVEN; REGION 1..5: note = epitope) [compound 1333]

Epitope sequence binding to IgE antibody, rank of the sequence (serum of patient P26 (WDEIA)): Key
Substance: 1336 (NVEN; REGION 1..4: note = epitope) [compound 1336]

Epitope sequence binding to IgE antibody, rank of the sequence (serum of patient P32 (WDEIA)): Preferably
Substance: 1339 (INVEN; REGION 1..5: note = epitope) [compound 1339]

Epitope sequence binding to IgE antibody, rank of the sequence (serum of patient P32 (WDEIA)): Key
Substance: 1340 (NVEN; REGION 1..4: note = epitope) [compound 1340]

Epitope sequence binding to IgE antibody, rank of the sequence (serum of patient P32 (WDEIA)): Key
Substance: 1341 (NRRALR; REGION 1..6: note = epitope) [compound 1341]

Epitope sequence binding to IgE antibody, rank of the sequence (serum of patient P33 (WDEIA)): Preferably
Substance: 1344 (INVEN; REGION 1..5: note = epitope) [compound 1344]

Epitope sequence binding to IgE antibody, rank of the sequence (serum of patient P33 (WDEIA)): Key
Substance: 1345 (NVEN; REGION 1..4: note = epitope) [compound 1345]

Epitope sequence binding to IgE antibody, rank of the sequence (serum of patient P33 (WDEIA)): Key
Substance: 1346 (NRRALR; REGION 1..6: note = epitope) [compound 1346]

Epitope sequence binding to IgE antibody, rank of the sequence (serum of patient P34 (WDEIA)): Preferably
Substance: 1351 (INVEN; REGION 1..5: note = epitope) [compound 1351]

Epitope sequence binding to IgE antibody, rank of the sequence (serum of patient P35 (WDEIA)): Key
Substance: 1353 (NVEN; REGION 1..4: note = epitope) [compound 1353]

Epitope sequence binding to IgE antibody, rank of the sequence (serum of patient P35 (WDEIA)): Key
Substance: 1354 (VEDNRRALR; REGION 1..9: note = epitope) [compound 1354]

Epitope sequence binding to IgE antibody, rank of the sequence (serum of patient P36 (WDEIA)): Preferably
Substance: 1356 (INVEN; REGION 1..5: note = epitope) [compound 1356]
